# Experimental data: patent US8815509B2, “Fluorescence-based assay for the rapid detection and quantification of deoxyribonucleoside triphosphates” (University of Southern California, priority 2011, dated 2014)
# Tested on: HCT116 human colorectal cancer cells
# Experiment: Intracellular dNTP pools of HCT116 cells after treatment with thymidylate synthase inhibitors, measured with the fluorescence-based dNTP assay
# Conditions: for Intracellular dGTP concentration / Intracellular dCTP concentration / Intracellular dATP concentration / Intracellular dTTP concentration: 4 h, Mean ± SD; for Intracellular dGTP concentration: control 4.7 ± 0.8; for Intracellular dCTP concentration: control 10.5 ± 0.2; for Intracellular dATP concentration: control 13.6 ± 1.17; for Intracellular dTTP concentration: control 20.4 ± 0.77; for dGTP after treatment: depletion from 4.7; for dTTP after treatment: vehicle-treated cells 20.4; for dCTP levels after treatment: reduction from 10.5
# [1] = HCT116, 2.5 μmol/L pemetrexed, 4 hours
# Description: Reaction mixtures contained primer, probe and template at an equimolar final concentration of 0.4 mmol/L. MgCl2 was included at a final concentration of 2 mmol/L. Non-limiting dNTPs were included in the reaction mix in excess at a final concentration of 100 mmol/L (the dNTP to be assayed was excluded). AmpliTaq Gold DNA polymerase was added at 0.875 U/reaction, 2.5 μl of 10×PCR buffer 2 added and nuclease-free ddH2O added to a final reaction volume of 25 μl. For analysis of cell extracts, the volume of ddH20 was modified to accommodate the addition of 2.5 μl of cell extract. For dUTP determination from cell extracts, the volume of ddH20 was further modified to accommodate an additional 1 μl of dUTPase (10 ng/μl). Thermal profiling and fluorescence detection was performed using the ‘isothermal’ program on board an Applied Biosystems 7500 Real-Time PCR System. For analysis of dNTPs, the thermal profile consisted of a 10 min 95° C. step to ‘hot-start’ the Taq polymerase and a primer extension time of up to 30 min at 60° C. depending on the application. Raw fluorescence spectra for 6-FAM was measured using filter A at specified time intervals (typically every 5 min) to follow assay progression using Sequence Detection Software (SDS Version 1.4, Applied Biosystems) and exported and analyzed in Microsoft Excel (Microsoft, Redmond Wash.) and Prism (GraphPad Software, La Jolla Calif.). In all cases, fluorescence values for blank reactions (limiting dNTP omitted) were subtracted to give normalized fluorescence units (NFU) to account for background probe fluorescence.
# The human colorectal cancer cell line HCT116 was purchased from American Type Culture Collection (Lockville, Md.). HCT116 cells were maintained in McCoy's 5A media (Invitrogen) supplemented with 10% fetal bovine serum (Lonza, Walkersville, Md.) with penicillin/streptomycin, sodium pyruvate and L-glutamine (Invitrogen, Carlsbad, Calif.). For pemetrexed analyses, cells were incubated in folate-depleted RPMI supplemented with 25 nmol/L 5-Formyltetrahydrofolate, 10% fetal bovine serum (Lonza), penicillin/streptomycin, sodium pyruvate and L-glutamine for 24 h prior to treatment. Cells were maintained in a humidified Form a incubator (Form a, Waltham, Mass.) at 37° C. with 5% CO2 and routinely screened for mycoplasma using the MycoALERT detection kit (Lonza) and verified mycoplasma negative.
# The relationship between assay response and known concentrations of the analytes (dNTPs) was analyzed by a 5-point (minimum) calibration curve. Calibration curves were obtained by assaying serial dilutions of dNTP standards diluted with ultra-pure nuclease-free water to the desired concentration and evaluated using regression coefficients (R^2). Samples were assayed in triplicate, and experiments were repeated on three independent occasions as appropriate. The limit of detection (LOD) was defined as the mean value of the negative blind controls plus 3 standard deviations (SD) of the mean, i.e. the concentration with a signal to noise ratio of 3:1. The limit of quantification (LOQ) was defined as the mean value of the negative controls plus 5 SD determined from three independent assays (signal to noise ratio of 5:1). Coefficient of variation (% CV) values were calculated from the cumulative mean and SD of replicates. Inter-assay % CVs were calculated from 3 independent experiments performed on different days. The intra-assay % CV represents the mean±SD % CV obtained from assaying replicate samples within 3 identical yet independent assays performed on the same day. The accuracy was assessed by comparing the nominal dNTP concentrations with the corresponding calculated values based on the calibration curve and presented as a percentage.
smiles,measurement,setting,value
"Nc1nc2[nH]cc(CCc3ccc(C(=O)N[C@@H](CCC(=O)O)C(=O)O)cc3)c2c(=O)[nH]1 [PTX, pemetrexed]",Intracellular dGTP concentration,"HCT116, 2.5 μmol/L PTX",1.14 ± 0.3 pmoles × 10^6 cells
same,Intracellular dCTP concentration,"HCT116, 2.5 μmol/L PTX",11.1 ± 2.5 pmoles × 10^6 cells
same,Intracellular dATP concentration,"HCT116, 2.5 μmol/L PTX",13.4 ± 1.68 pmoles × 10^6 cells
same,Intracellular dTTP concentration,"HCT116, 2.5 μmol/L PTX",3.93 ± 0.8 pmoles × 10^6 cells
same,dGTP after treatment,[1],1.1 pmoles per 10^6 cells
same,dTTP after treatment,[1],3.9 pmoles per 10^6 cells
"O=c1[nH]c(=O)n([C@H]2C[C@H](O)[C@@H](CO)O2)cc1F [FUdR, fluorodeoxyuridine]",Intracellular dGTP concentration,"HCT116, 1 μmol/L FUdR",0.43 ± 0.11 pmoles × 10^6 cells
same,Intracellular dCTP concentration,"HCT116, 1 μmol/L FUdR",8 ± 0.04 pmoles × 10^6 cells
same,Intracellular dATP concentration,"HCT116, 1 μmol/L FUdR",14.5 ± 0.13 pmoles × 10^6 cells
same,Intracellular dTTP concentration,"HCT116, 1 μmol/L FUdR",4.5 ± 0.71 pmoles × 10^6 cells
same,Depletion of dTTP versus vehicle-treated cells,"HCT116, 1 μmol/L FUdR, 4 hours",> 4 fold
same,dGTP after treatment,"HCT116, 1 μmol/L FUdR, 4 hours",0.43 pmoles per 10^6 cells
same,dCTP levels after treatment,"HCT116, 1 μmol/L FUdR, 4 hours",8 pmoles per 10^6
same,dTTP after treatment,"HCT116, 1 μmol/L FUdR, 4 hours",4.5 pmoles per 10^6 cells
"O=c1[nH]cc(F)c(=O)[nH]1 [5-FU, 5-fluorouracil]",Intracellular dGTP concentration,"HCT116, 5 μmol/L 5-FU",0.88 ± 0.1 pmoles × 10^6 cells
same,Intracellular dCTP concentration,"HCT116, 5 μmol/L 5-FU",8.7 ± 0.24 pmoles × 10^6 cells
same,Intracellular dATP concentration,"HCT116, 5 μmol/L 5-FU",13.9 ± 0.33 pmoles × 10^6 cells
same,Intracellular dTTP concentration,"HCT116, 5 μmol/L 5-FU",1.64 ± 0.16 pmoles × 10^6 cells
same,dGTP after treatment,"HCT116, 5 μmol/L 5-FU, 4 hours",0.9 pmoles per 10^6 cells
same,dCTP levels after treatment,"HCT116, 5 μmol/L 5-FU, 4 hours",8.7 pmoles per 10^6
same,dTTP after treatment,"HCT116, 5 μmol/L 5-FU, 4 hours",1.6 pmoles per 10^6 cells
